US7300946B2, “N-(substituted arylmethyl)-4-(disubstituted methyl) piperidines and pyridines” (Bayer CropScience AG, priority 2002, dated 2007)

Test system: tobacco budworm (Heliothis virescens [Fabricius])
Test: surface-treated diet test against the tobacco budworm
Format: in vivo
Settings: tobacco budworm second instar larvae, surface-treated diet, 0.25 millimoles of candidate insecticide on the surface of the diet, five-day exposure; for Percent Mortality: compared to total number of insects infested; for Percent Growth Inhibition: inhibition of insect weight relative to untreated controls
In short: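 Wheat germ artificial diet surface-treated with 40 µL of 50 mM DMSO stock diluted 1:7 in 1:1 water/acetone (0.25 millimolar on diet), or sub-multiples for rate tests. One second-instar larva per well, 25° C, 60% RH, 5 days; percent weight inhibition vs DMSO controls and percent mortality.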

Compound | Percent Mortality [%] | Percent Growth Inhibition [%]
CCON=Cc1ccc(CN2CCC(C(OC(=O)Nc3ccc(Cl)cc3)c3ccc(F)cc3)CC2)cc1 (stereo not drawn) [Compound 526] | 100 | 100
CCON=Cc1ccc(CN2CCC(C(OC(=O)Nc3cccc(F)c3)c3ccc(F)cc3)CC2)cc1 (stereo not drawn) [Compound 527] | 100 | 100
CCON=Cc1ccc(CN2CCC(C(OC(=O)Nc3cc(F)cc(F)c3)c3ccc(F)cc3)CC2)cc1 (stereo not drawn) [Compound 528] | 100 | 100
CCON=Cc1ccc(CN2CCC(C(OC(=O)Nc3ccc(Cl)cc3)c3ccc(Cl)cc3Cl)CC2)cc1 (stereo not drawn) [Compound 529] | 100 | 100
CCON=Cc1ccc(CN2CCC(C(OC(=O)Nc3cccc(F)c3)c3ccc(Cl)cc3Cl)CC2)cc1 (stereo not drawn) [Compound 530] | 100 | 100
CCON=Cc1ccc(CN2CCC(C(OC(=O)Nc3cc(F)cc(F)c3)c3ccc(Cl)cc3Cl)CC2)cc1 (stereo not drawn) [Compound 531] | 100 | 100
CCON=Cc1ccc(CN2CCC(C(OC(=O)Nc3ccc(Cl)cc3)c3cc(Cl)cc(Cl)c3)CC2)cc1 (stereo not drawn) [Compound 532] | 100 | 100
CCON=Cc1ccc(CN2CCC(C(OC(=O)Nc3cccc(F)c3)c3cc(Cl)cc(Cl)c3)CC2)cc1 (stereo not drawn) [Compound 533] | 100 | 100
CCON=Cc1ccc(CN2CCC(C(OC(=O)Nc3cc(F)cc(F)c3)c3cc(Cl)cc(Cl)c3)CC2)cc1 (stereo not drawn) [Compound 534] | 100 | 100
CCON=Cc1ccc(CN2CCC(C(OC(=O)Nc3cccc(F)c3)c3ccc(C(F)(F)F)cc3)CC2)cc1 (stereo not drawn) [Compound 535] | 100 | 100
CCON=Cc1ccc(CN2CCC(C(OC(=O)N(C)c3ccccc3)c3ccc(C(F)(F)F)cc3)CC2)cc1 (stereo not drawn) [Compound 536] | 100 | 100
CCON=Cc1ccc(CN2CCC(C(OC(=O)Nc3ccc(Cl)cc3)c3ccc(OC(F)(F)F)cc3)CC2)cc1 (stereo not drawn) [Compound 537] | 100 | 100
CCON=Cc1ccc(CN2CCC(C(OC(=O)Nc3cc(F)cc(F)c3)c3ccc(OC(F)(F)F)cc3)CC2)cc1 (stereo not drawn) [Compound 538] | 100 | 100
C#CCON=Cc1ccc(CN2CCC(C(OC(=O)Nc3ccc(Cl)cc3)c3ccc(C(F)(F)F)cc3)CC2)cc1 (stereo not drawn) [Compound 539] | 100 | 100
C#CCON=Cc1ccc(CN2CCC(C(OC(=O)Nc3cc(F)cc(F)c3)c3ccc(C(F)(F)F)cc3)CC2)cc1 (stereo not drawn) [Compound 540] | 100 | 100
CCN(CC)S(=O)(=O)c1ccc(CN2CCC(C(OC(=O)Nc3cc(F)cc(F)c3)c3ccc(C(F)(F)F)cc3)CC2)cc1 (stereo not drawn) [Compound 541] | 0 | 59
O=C(Nc1cc(F)cc(F)c1)OC(c1ccc(C(F)(F)F)cc1)C1CCN(Cc2ccc(S(=O)(=O)NC3CCCC3)cc2)CC1 (stereo not drawn) [Compound 542] | 0 | 43

Compound | Percent Mortality [%] | Percent Growth Inhibition [%]
O=C(Nc1ccc(Cl)cc1)OC(c1ccc(C(F)(F)F)cc1)C1CCN(Cc2ccc(-c3ccccc3)cc2)CC1 (stereo not drawn) [Compound 543] | 100 | 100
O=C(Nc1cc(F)cc(F)c1)OC(c1ccc(C(F)(F)F)cc1)C1CCN(Cc2ccc(-c3ccccc3)cc2)CC1 (stereo not drawn) [Compound 544] | 100 | 100
O=C(Nc1ccc(Cl)cc1)OC(c1ccc(C(F)(F)F)cc1)C1CCN(Cc2ccc(Oc3ccccc3)cc2)CC1 (stereo not drawn) [Compound 545] | 100 | 100
O=C(Nc1cc(F)cc(F)c1)OC(c1ccc(C(F)(F)F)cc1)C1CCN(Cc2ccc(Oc3ccccc3)cc2)CC1 (stereo not drawn) [Compound 546] | 100 | 100
O=C(Nc1cc(F)cc(F)c1)OC(c1ccc(C(F)(F)F)cc1)C1CCN(Cc2ccc(Oc3ccccc3F)cc2)CC1 (stereo not drawn) [Compound 547] | 100 | 100
O=C(Nc1cc(F)cc(F)c1)OC(c1ccc(C(F)(F)F)cc1)C1CCN(Cc2ccc(Oc3c(F)cccc3F)cc2)CC1 (stereo not drawn) [Compound 548] | 100 | 100
O=C(Nc1cc(F)cc(F)c1)OC(c1ccc(C(F)(F)F)cc1)C1CCN(Cc2ccc(OCc3ccccc3)cc2)CC1 (stereo not drawn) [Compound 549] | 0 | 98
O=C(Nc1cc(F)cc(F)c1)OC(c1ccc(C(F)(F)F)cc1)C1CCN(Cc2ccc(NC(=O)c3ccccc3Cl)cc2)CC1 (stereo not drawn) [Compound 550] | 100 | 100
O=C(Nc1cc(F)cc(F)c1)OC(c1ccc(C(F)(F)F)cc1)C1CCN(Cc2ccc(NC(=O)c3c(Cl)cccc3Cl)cc2)CC1 (stereo not drawn) [Compound 551] | 100 | 100
O=C(Nc1cc(F)cc(F)c1)OC(c1ccc(C(F)(F)F)cc1)C1CCN(Cc2ccc(NC(=O)c3c(F)cccc3F)cc2)CC1 (stereo not drawn) [Compound 552] | 100 | 100
COc1ccccc1C(=O)Nc1ccc(CN2CCC(C(OC(=O)Nc3cc(F)cc(F)c3)c3ccc(C(F)(F)F)cc3)CC2)cc1 (stereo not drawn) [Compound 553] | 100 | 100
COc1ccc(C(=O)Nc2ccc(CN3CCC(C(OC(=O)Nc4cc(F)cc(F)c4)c4ccc(C(F)(F)F)cc4)CC3)cc2)cc1 (stereo not drawn) [Compound 554] | 0 | 99
O=C(Nc1ccc(F)cc1)OC(c1ccc(C(F)(F)F)cc1)C1CCN(Cc2ccc(-n3cccn3)cc2)CC1 (stereo not drawn) [Compound 555] | 33 | 100
O=C(Nc1cc(F)cc(F)c1)OC(c1ccc(C(F)(F)F)cc1)C1CCN(Cc2ccc(-n3cccn3)cc2)CC1 (stereo not drawn) [Compound 556] | 100 | 100
O=C(Nc1ccc(F)cc1)OC(c1ccc(C(F)(F)F)cc1)C1CCN(Cc2ccc(-n3cncn3)cc2)CC1 (stereo not drawn) [Compound 557] | 0 | 86
O=C(Nc1cc(F)cc(F)c1)OC(c1ccc(C(F)(F)F)cc1)C1CCN(Cc2ccc(-n3cncn3)cc2)CC1 (stereo not drawn) [Compound 558] | 17 | 99
